# Assay results as given in the METLIN SMRT retention time set (Domingo-Almenara et al. 2019).
# Assay: gradient 5% acetonitrile 3 min, to 50% in 2 min, to 85% in 15 min, held 3 min, 100 µL/min
# Conditions: column: Zorbax Extend-C18 2.1 x 50 mm; eluents: water / acetonitrile, 0.1% formic acid
# How it was run: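 A Zorbax Extend-C18 column (2.1 × 50 mm, 1.8 μm) run at 100 μL/min with water and acetonitrile, both containing 0.1% formic acid, separated mixtures of ~100 pure standards. The HPLC was coupled to a quadrupole time-of-flight mass spectrometer operated in positive and negative ionization mode, with dead and dwell volumes of 40 μL and 900 μL. Each retention time was taken from a computationally picked adduct peak that was then manually inspected.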
row,SMILES,RP-LC retention time [s]
1,CCOC(=O)c1c(C)oc2nc(C)nc(NCc3ccccn3)c12,683
2,CCOc1ccc(NS(=O)(=O)c2cc(C(=O)Nc3ccc(C)cc3)n[nH]2)cc1,890
3,Cc1ccc(S(=O)(=O)N2CC(=O)N(Cc3ccccc3)C(C)(C(=O)NCc3ccccc3)C2)cc1 (stereo not given),1010
4,Cc1cc(N2C=C(C(=O)N3CCOCC3)S(=O)(=O)c3ccc(F)cc32)ccc1F,814
5,O=C(NCc1ccc(F)cc1)N1CC(n2ccnc2)C1,577
6,COc1ccc(C[C@H](C)NC[C@@H](O)c2ccc(O)c(NC=O)c2)cc1,663
7,COCCNc1c(-c2ccc(F)cc2)nc2sc(C(=O)NCc3ccccn3)c(C)n12,661
8,O=C(c1ccc2cc[nH]c2c1)N1CCN(c2cc(-c3ccccc3)[nH]n2)CC1,748
9,COCCCNCc1c(C(=O)O)c(C)n(Cc2ccccc2Cl)c1C,688
10,COc1ccc(-c2ncccc2CNS(=O)(=O)c2cc(C)cc(C)c2)cc1,717
11,COCCN1C(=O)[C@H]2CN(Cc3ccccc3C(F)(F)F)C[C@H]2C1=O,849
12,COc1ccc(-c2noc(CN3C(=O)COc4ccc(Cl)cc43)n2)cc1OC,971
13,Cc1cc(C)c(S(=O)(=O)N2CCC(N3CCN(Cc4ccccc4)C(=O)C3=O)CC2)cc1C,917
14,O=c1nc(NCc2ccccc2)c2ccccc2[nH]1,620
15,COc1cccc(C2Cn3nnc(-c4nc(-c5ccc(C(F)(F)F)cc5)no4)c3CO2)c1 (stereo not given),1270
16,Cc1ccc(N2CCN(Cc3c(C)noc3C)CC2)cc1,621
17,CN1C(=O)CC2(C)C1=CCc1scnc12 (stereo not given),636
18,CCOC(=O)c1ccc(Nc2c(-c3ccc(Cl)cc3)nc3cnccn23)cc1,964
19,O=C(c1n[nH]c2c1CCCC2)N1CCn2c(nnc2-c2ccccc2)C1,645
20,O=C1CC(c2cccc(Cl)c2)Cc2nc(N3CCN(c4ccccc4)CC3)ncc21 (stereo not given),1340

row,SMILES,RP-LC retention time [s]
1,COc1ccc(C2CC(=O)N(c3ccc4c(c3)OCCO4)C(=O)C2)cc1OC,789
2,CN(c1cccc(C(F)(F)F)c1)S(=O)(=O)c1cc2n(c1)CCCNC2=O,759
3,COc1ccc(-c2nnc(-c3ccc(Cl)c(S(=O)(=O)N4CCCCCC4)c3)o2)cc1,1210
4,COc1ccccc1-c1nnc(-c2ccc(Cl)c(S(=O)(=O)N3CCC(C)CC3)c2)o1,1190
5,COc1cc(CNCCc2ccc(S(N)(=O)=O)cc2)ccc1Oc1nnnn1-c1ccccc1,672
6,COc1ccc(-c2nc(-c3cn(Cc4ccc(F)cc4)nn3)no2)c(OC)c1,940
7,Cn1c(=O)c2cc(C(=O)Nc3ccccc3Cl)cnc2n(-c2ccccc2)c1=O,882
8,CCN(CC)CCCC(C)Nc1nc(C)nc2cc(Cl)ccc12 (stereo not given),769
9,COC(=O)C1=CN(c2cccc(Cl)c2)c2cc(F)ccc2S1(=O)=O,897
10,CCc1noc(NC(C)=O)c1-c1ccc(OC)c(S(=O)(=O)Nc2cc(C)cc(C)c2)c1,852
11,COc1ccc(-c2c(NC(=O)c3cccs3)n(C)c3ccccc3c2=O)cc1,668
12,CCNc1cc(-n2cccn2)ncn1,666
13,Cc1ccc(-n2c(=O)c3c(cc(C)n3C)n(CC(=O)Nc3ccc(C)c(C)c3)c2=O)cc1,906
14,COc1ccc(CC(=O)Nc2ccc(-c3nc(Cn4cc(C)cn4)c(C)o3)cc2)cc1,889
15,CCc1nc(-c2ccc(-c3noc(CN4C(=O)COc5ccc(Cl)cc54)n3)cc2)cs1,1270
16,CCN1CCN(c2c(S(=O)(=O)c3ccc(Cl)cc3)cnc3cc4c(cc23)OCCO4)CC1,660
17,CC(C)c1ccc(Nc2c(-c3ccc(N(C)C)cc3)nc3ncccn23)cc1,820
18,Cc1noc(-c2cc(=O)n(CC(=O)NCc3ccccc3Cl)c3ccccc23)n1,866
19,CCOc1cccc(-c2noc(Cn3c(=O)n(Cc4ccccc4)c(=O)c4sccc43)n2)c1,1160

# Second part, the molecule after the results:
row,RP-LC retention time [s],SMILES
1,722,COc1cc(OC)c(NC(=O)Cn2nc3n(c2=O)CCCCC3)cc1Cl
2,637,CCNC(=O)c1cn(-c2ccc(SCC(=O)Nc3ccc4c(c3)OCCO4)nn2)cn1
3,564,COc1cn(CC(=O)NCc2ccccc2Cl)c(CO)cc1=O
4,641,CCC1CCCCN1CCCNC(=O)Cn1c(=O)c2cccn2c2ccc(F)cc21 (stereo not given)
5,567,Cc1nc(C)c(C(=O)N2CC(N(CC(C)C)C3CCN(C)CC3)C2)s1
6,646,Cc1nn(-c2cc(N3CCCCC3)ncn2)c(C)c1CCC(=O)NCc1ccccn1
7,617,CCNC(=O)C1CCc2sc(C(=O)N(C)C)cc2C1 (stereo not given)
8,604,CC(=O)N1CCCC1c1nc(C2CN(C(=O)CCn3cc(C)cn3)C2)no1 (stereo not given)
9,844,CC(C)NC(=O)c1ccc(OCC2CCCN(C(=O)c3ccc(F)cc3)C2)cc1 (stereo not given)
10,750,COc1ccc(NC(=O)c2nc(C)oc2C)cc1OC
11,619,O=C([C@@H]1C[C@H](F)CN1C(=O)c1ccccc1Cl)N1CCOCC1
12,1020,CCCn1cc(C(=O)NCCCOC)c(S(=O)(=O)N2CCN(c3ccccc3Cl)CC2)n1
13,738,CCCn1cc(C(=O)NC2CCCC2)c2nn(-c3ccccc3)c(=O)c-2c1
14,522,O=C(Nc1cnc2c(c1)CCC2)C1CCCC1
15,550,CCN(CC)c1ccc(C(=O)N2CCc3nc[nH]c3C2)cc1
16,624,O=C(CN1CCN(C(=O)Nc2ccc(Cl)cc2)CC1=O)N1CCN(C2CCCCC2)CC1
17,569,CC1CCCCN1CCN(CCC(=O)N1CCNCC1)C(=O)c1ccc(C(F)(F)F)cc1 (stereo not given)
18,1010,COC(=O)c1cc(S(=O)(=O)N2CCCC2C(=O)Nc2ccc(Br)c(C)c2)cn1C (stereo not given)
19,741,CCCN1C(=O)C(CC(=O)NC2CCCC2)Sc2ncccc21 (stereo not given)
20,660,CC(C)C(=O)NCC12CCCC=C1N(C)C(=O)CC2 (stereo not given)
21,653,CCc1ccc(S(=O)(=O)c2cnc3ccc(OC)cc3c2N2CCN(C)CC2)cc1
22,944,CCOc1ccc2nc(NC(=O)Cn3nc(C(=O)N4CCCCC4)c4ccccc43)sc2c1
23,956,COc1ccc(NC(=O)C2CCC(=O)N2S(=O)(=O)c2ccc(C)c(C)c2)cc1Cl (stereo not given)
24,738,Cc1nn(C)cc1CN(C)C(=O)c1ccc(-c2ccccc2)cc1
25,816,CN(CC1(C)CCOCC1)C(=O)COc1ccc(Cl)cc1
26,942,CCOC(=O)c1sc(NC(=O)C2CC2)nc1-c1ccccc1

row,RP-LC retention time [s],SMILES
1,635,Cc1cc2c(cc1NC(=O)c1ccco1)n(C)c(=O)n2C
2,1260,CCN(C(=O)c1ccccc1C)c1nc(-c2ccccc2)cs1
3,887,COc1ccc(OC)c(NC(=O)NC2CCN(c3cc(C)cc(C)c3)C2=O)c1 (stereo not given)
4,1060,Cc1ccc(CN(C(=O)c2ccc(OCC(C)C)cc2)C2CCS(=O)(=O)C2)o1 (stereo not given)
5,610,Cc1cc(C)n(-c2ccnc(N3CCC(C(=O)NCc4ccccn4)CC3)n2)n1
6,718,CCc1ccccc1NC(=O)Cn1ncc2c(c1=O)N(C1CC1)C(=O)CS2
7,564,Cc1cc(N2CCN(C)CC2)nc2ccc(NC(=O)NCc3ccco3)cc12
8,588,CC1CCN(CCNC(=O)c2cccc3c2SCCC3=O)CC1
9,949,Cc1ccc(NC(=O)NC2CCN(c3ccc(C)c(C)c3)C2=O)c(C)c1 (stereo not given)
10,790,O=C(NCC(c1cccs1)S(=O)(=O)c1cccs1)NC1CCCCC1 (stereo not given)
11,1130,CCCn1cc(C(=O)Nc2cccc(OC)c2)c(=O)c2ccc(C)nc21
12,859,O=C(Nc1cnc(N2CCCCCC2)nc1)c1cccs1
13,579,CN1CCC(CCNC(=O)C2CCc3sc(C(=O)N4CCCC4)cc3C2)CC1 (stereo not given)
14,770,CCCn1c(=O)sc2cc(S(=O)(=O)N3CCC(C(=O)N4CCOCC4)CC3)ccc21
15,590,O=C(c1ccsc1)N1CC(c2noc(C3CCCN3CC3CC3)n2)C1 (stereo not given)
16,868,COc1cccc(-c2ccnc3nc(C4CCC4)nn23)c1
17,723,CC(=O)c1cccc(NC(=O)Cn2c(N3CCc4ccccc4C3)nc(C)cc2=O)c1
18,626,COc1ccc(OC)c(NC(=O)N2CCC(CN3CCC(C)CC3)CC2)c1
19,837,Cc1cc(C)cc(NC(=O)Cn2c(=O)c3cc(C4CC4)nn3c3ncccc32)c1
20,659,NS(=O)(=O)c1ccc(NC(=O)C2CCCN(c3ncnc4c3nc3n4CCCCC3)C2)cc1 (stereo not given)
21,939,Cc1ccc2c(c1)N(CCC(C)C)N=C(C(=O)N1CCCC1)S2(=O)=O
22,1110,CCCCOc1ccc(C(=O)N2CCCC2c2nc(-c3ccc(OC)c(OC)c3)no2)cc1 (stereo not given)
23,805,COc1ccccc1NC(=O)C1CCCN(c2ncnc3c2nc2n3CCCCC2)C1 (stereo not given)
24,734,COC(=O)c1ccc(NC(=O)Cc2csc3nc(-c4ccc(OC)c(OC)c4)cn23)cc1
25,782,CCCn1c(-c2cccc(C(=O)NCc3cccs3)c2)nc2cccnc21
